Molecules are shown by their SMILES. Counter-ions that a name gives are not always drawn.

Assay [1] addresses T1, EP1 receptors (Homo sapiens, UniProt P34995).
T1 sequence (P34995 1-402): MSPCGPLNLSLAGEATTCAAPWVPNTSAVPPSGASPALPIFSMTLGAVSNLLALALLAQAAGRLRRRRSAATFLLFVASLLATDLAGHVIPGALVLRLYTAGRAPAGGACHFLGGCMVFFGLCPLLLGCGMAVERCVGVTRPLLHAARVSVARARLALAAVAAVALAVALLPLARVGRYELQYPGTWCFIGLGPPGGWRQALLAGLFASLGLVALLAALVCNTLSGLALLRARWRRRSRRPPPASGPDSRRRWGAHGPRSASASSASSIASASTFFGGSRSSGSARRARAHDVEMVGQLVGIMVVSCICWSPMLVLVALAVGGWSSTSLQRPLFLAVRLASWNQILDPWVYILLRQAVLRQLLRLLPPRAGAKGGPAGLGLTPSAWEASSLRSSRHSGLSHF
Description: Binding assay for the human prostanoid EP1 receptor (competition with [3H]-PGE2). As to conditions: averages of a number of experiments; Example 3 as sodium salt; read-out: pIC50 value in the binding assay for the human prostanoid EP1 receptor (converted). Further details: expressed in transfected cells; host or cells: CHO-K1 (membrane fraction). The protocol:
Binding Assay for the Human Prostanoid EP1 Receptor
Competition assay using [^3H]-PGE2.
Compound potencies are determined using a radioligand binding assay. In this assay compound potencies are determined from their ability to compete with tritiated prostaglandin E2 ([^3H]-PGE2) for binding to the human EP1 receptor.
This assay utilises Chinese hamster ovary-K1 (CHO-K1) cells into which a stable vector containing the EP1 cDNA has previously been transfected. Cells are cultured in suitable flasks containing culture medium such as DMEM:F-12 supplemented with 10% v/v foetal calf serum, 2 mM L-glutamine, 0.25 mg/ml geneticin, 10 μg/ml puromycin and 10 μM indomethacin.
Cells are detached from the culture flasks by incubation in calcium and magnesium free phosphate buffered saline containing 1 mM disodium ethylenediaminetetraacetic acid (Na2EDTA) and 10 μM indomethacin for 5 min. The cells are isolated by centrifugation at 250×g for 5 mins and suspended in an ice cold buffer such as 50 mM Tris, 1 mM Na2EDTA, 140 mM NaCl, 10 μM indomethacin (pH 7.4). The cells are homogenised using a Polytron tissue disrupter (2×10s burst at full setting), centrifuged at 48,000×g for 20 mins and the pellet containing the membrane fraction is washed (optional) three times by suspension and centrifugation at 48,000×g for 20 mins. The final membrane pellet is suspended in an assay buffer such as 10 mM 2-[N-morpholino]ethanesulphonic acid, 1 mM Na2EDTA, 10 mM MgCl2 (pH 6). Aliquots are frozen at −80° C. until required.
For the binding assay the cell membranes, competing compounds and [^3H]-PGE2 (3 nM final assay concentration) are incubated in a final volume of 100 μl for 30 min at 30° C. All reagents are prepared in assay buffer. Reactions are terminated by rapid vacuum filtration over GF/B filters using a Brandell cell harvester. The filters are washed with ice cold assay buffer, dried and the radioactivity retained on the filters is measured by liquid scintillation counting in Packard TopCount scintillation counter.
The data are analysed using non linear curve fitting techniques to determine the concentration of compound producing 50% inhibition of specific binding (IC50).

For assay [2], the target named is T2, EP3 receptors (Homo sapiens, UniProt P43115).
T2 construct: expressed in transfected cells; host or cells: CHO-K1
T2 sequence (P43115 1-390): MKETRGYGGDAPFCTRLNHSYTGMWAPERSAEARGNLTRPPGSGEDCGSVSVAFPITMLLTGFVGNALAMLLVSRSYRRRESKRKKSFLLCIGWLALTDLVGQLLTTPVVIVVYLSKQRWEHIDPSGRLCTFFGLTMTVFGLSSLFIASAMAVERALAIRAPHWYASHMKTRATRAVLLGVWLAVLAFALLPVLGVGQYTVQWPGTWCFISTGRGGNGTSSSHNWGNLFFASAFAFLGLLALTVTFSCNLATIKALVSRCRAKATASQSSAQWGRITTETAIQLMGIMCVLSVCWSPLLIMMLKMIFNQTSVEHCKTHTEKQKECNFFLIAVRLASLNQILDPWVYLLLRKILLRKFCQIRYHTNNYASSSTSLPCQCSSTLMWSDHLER
Briefly: human EP3 calcium mobilisation assay (CHO-K1 cells, PGE2, FLIPR). Format: cell-based. The note with it: free bases or sodium salts; averages of a number of experiments; read-out: functional pKi value, human EP3 calcium mobilisation assay (converted). The protocol: Briefly, the antagonist properties of compounds are assessed by their ability to inhibit the mobilisation of intracellular calcium ([Ca^2+]i) in response to activation of EP1 or EP3 receptors by the natural agonist hormone prostaglandin E2 (PGE2). Increasing concentrations of antagonist reduce the amount of calcium that a given concentration of PGE2 can mobilise. The net effect is to displace the PGE2 concentration-effect curve to higher concentrations of PGE2. The amount of calcium produced is assessed using a calcium-sensitive fluorescent dye such as Fluo-4, AM and a suitable instrument such as a Fluorimetric Imaging Plate Reader (FLIPR). Increasing amounts of [Ca^2+]i produced by receptor activation increase the amount of fluorescence produced by the dye and give rise to an increasing signal. The signal may be detected using the FLIPR instrument and the data generated may be analysed with suitable curve-fitting software.
The human EP1 or EP3 calcium mobilisation assay (hereafter referred to as ‘the calcium assay’) utilises Chinese hamster ovary-K1 (CHO-K1) cells into which a stable (pCIN; BioTechniques 20 (1996): 102-110) vector containing either EP1 or EP3 cDNA has previously been transfected. Cells are cultured in suitable flasks containing culture medium such as DMEM:F-12 supplemented with 10% v/v foetal calf serum, 2 mM L-glutamine, 0.25 mg/ml geneticin, 100 μM flurbiprofen and 10 µg/ml puromycin.
For assay, cells are harvested using a proprietary reagent that dislodges cells such as Versene. Cells are re-suspended in a suitable quantity of fresh culture media for introduction into a 384-well plate. Following incubation for 24 hours at 37° C. the culture media is replaced with a medium containing Fluo-4 and the detergent pluronic acid, and a further incubation takes place. Concentrations of compounds are then added to the plate in order to construct concentration-effect curves. This may be performed on the FLIPR in order to assess the agonist properties of the compounds. Concentrations of PGE2 are then added to the plate in order to assess the antagonist properties of the compounds.
The data so generated may be analysed by means of a computerised curve-fitting routine. The concentration of compound that elicits a half-maximal inhibition of the calcium mobilisation induced by PGE2 (pIC50) may then be estimated.

For `O=C(O)c1cccc(Cc2cc(Cl)ccc2OCC2CCCC2)n1` [Example 14, Sodium 6-({5-chloro-2-[(cyclopentylmethyl)oxy]phenyl}methyl)-2-pyridinecarboxylate], in assay [1], the IC50 was ≤ 31.6 nM.

In the case of `O=C(O)c1cccc(Cc2cc(Cl)ccc2OCc2cc(F)c(F)cc2F)n1` [Example 10, Sodium 6-[(5-chloro-2-{[(2,4,5-trifluorophenyl)methyl]oxy}phenyl)methyl]-2-pyridinecarboxylate], the Ki in assay [2] is > 10000 nM. For the same compound, the IC50 in assay [1] was ≤ 31.6 nM.

In the case of `O=C(O)c1cccc(Cc2cc(Cl)ccc2OCc2ccc(F)cc2F)n1` [Example 4, Sodium 6-[(5-chloro-2-{[(2,4-difluorophenyl)methyl]oxy}phenyl)methyl]-2-pyridinecarboxylate], the Ki in assay [2] was > 10000 nM. The IC50 in assay [1] is ≤ 31.6 nM.

Regarding `O=C(NS(=O)(=O)c1ccccc1)c1cccc(Cc2cc(Cl)ccc2OCc2ccc(Cl)cc2F)n1` [Example 28, 6-[(5-chloro-2-{[(4-chloro-2-fluorophenyl)methyl]oxy}phenyl)-methyl]-N-(phenylsulphonyl)-2-pyridinecarboxamide], in assay [2], the Ki was > 10000 nM. The IC50 in assay [1] was ≤ 31.6 nM.

Turning to `O=C(NS(=O)(=O)c1ccc(Br)cc1)c1cccc(Cc2cc(Cl)ccc2OCc2ccc(Cl)cc2F)n1` [Example 33, N-[(4-Bromophenyl)sulphonyl]-6-[(5-chloro-2-{[(4-chloro-2-fluorophenyl)methyl]oxy}phenyl)-methyl]-2-pyridinecarboxamide], in assay [1], the IC50 was ≤ 31.6 nM.

For the compound `CCCS(=O)(=O)NC(=O)c1cccc(Cc2cc(Cl)ccc2OCc2ccc(Cl)cc2F)n1` [Example 30, 6-[(5-Chloro-2-{[(4-chloro-2-fluorophenyl)methyl]oxy}-phenyl)methyl]-N-(propylsulphonyl)-2-pyridinecarboxamide], the Ki in assay [2] was > 10000 nM. Moreover, the IC50 in assay [1] is ≤ 31.6 nM.

For `O=C(O)c1cccc(Cc2cc(Cl)ccc2OCc2ccc(F)cc2Cl)n1` [Example 11, Sodium 6-[(5-chloro-2-{[(2-chloro-4-fluorophenyl)methyl]oxy}phenyl)methyl]-2-pyridinecarboxylate], the Ki in assay [2] is > 10000 nM. Also, the IC50 in assay [1] was ≤ 31.6 nM.

`Fc1cc(Cl)ccc1COc1ccc(Cl)cc1Cc1cccc(-c2nnn[nH]2)n1` [Example 38, 2-[(5-Chloro-2-{[(4-chloro-2-fluorophenyl)methyl]oxy}phenyl)-methyl]-6-(1H-tetrazol-5-yl)pyridine]: the IC50 in assay [1] is ≤ 31.6 nM.

`O=C(NS(=O)(=O)c1cccc(Br)c1)c1cccc(Cc2cc(Cl)ccc2OCc2ccc(Cl)cc2F)n1` [Example 34, N-[(3-Bromophenyl)sulphonyl]-6-[(5-chloro-2-{[(4-chloro-2-fluorophenyl)methyl]oxy}phenyl)-methyl]-2-pyridinecarboxamide]: the IC50 in assay [1] is ≤ 31.6 nM.

Turning to `O=C(O)c1cccc(Cc2cc(Cl)ccc2OCc2ccc(Cl)cc2Cl)n1` [Example 12, Sodium 6-[(5-chloro-2-{[(2,4-dichlororophenyl)methyl]oxy}phenyl)methyl]-2-pyridinecarboxylate], the IC50 in assay [1] is ≤ 31.6 nM.

In the case of `Cc1noc(C)c1S(=O)(=O)NC(=O)c1cccc(Cc2cc(Cl)ccc2OCc2ccc(Cl)cc2F)n1` [Example 36, 6-[(5-Chloro-2-{[(4-chloro-2-fluorophenyl)methyl]oxy}-phenyl)methyl]-N-[(3,5-dimethyl-4-isoxazolyl)sulphonyl]-2-pyridinecarboxamide], the Ki in assay [2] was > 10000 nM. The IC50 in assay [1] is ≤ 31.6 nM.

Regarding `CS(=O)(=O)NC(=O)c1cccc(Cc2cc(Cl)ccc2OCc2ccc(Cl)cc2F)n1` [Example 29, 6-[(5-Chloro-2-{[(4-chloro-2-fluorophenyl)methyl]oxy}-phenyl)methyl]-N-(methylsulphonyl)-2-pyridinecarboxamide], the Ki in assay [2] is > 10000 nM. Besides, the IC50 in assay [1] is ≤ 31.6 nM.

`Cc1ccc(C(=O)O)nc1Cc1cc(Cl)ccc1OCc1ccc(Cl)cc1F` [Example 39, 6-[(5-Chloro-2-{[(4-chloro-2-fluorophenyl)methyl]oxy}-phenyl)methyl]-5-methyl-2-pyridinecarboxylic acid, sodium salt]: in assay [1], the IC50 was ≤ 31.6 nM.

For `O=C(O)c1cccc(Cc2cc(Cl)ccc2OCc2ccc(Cl)cc2F)n1` [Example 3, Sodium 6-[(5-chloro-2-{[(4-chloro-2-fluorophenyl)methyl]oxy}phenyl)methyl]-2-pyridinecarboxylate], the IC50 in assay [1] is ≤ 31.6 nM.

These data come from patent publication US7759369B2, “Pyridine compounds for the treatment of prostaglandin mediated diseases” (Glaxo Group Limited, priority 2004, dated 2010).
